The subject of data set [1] is HepaRG cells. Briefly: PA and PANO content in cell culture medium of HepaRG cells upon pharmacological transporter inhibition (LC-MS/MS). The class given is in vitro ADME, human. The following applies: HepaRG, 2.5 µM PA, 4, 8, 24 h; CsA 10 µM, Ko143 5 µM, MK-571 50 µM, Qu 100 µM, TEA 3 mM. The procedure:
(§1) In the case of TEA, cells were pre-incubated 24 h prior to PA treatment. The inhibitors were applied anew at PA incubation.
In order to measure time-dependent depletion of PA and PANO content in cell culture medium, cells were seeded at a density of 0.2 × 10^6 cells per well in a 6-well plate and cultivated as described in Section 4.2. After four weeks of cultivation, cells were adapted to serum-free medium and medium substituted with insulin, transferrin, selenium (ITS) serum extender (Capricorn Scientific, Ebsdorfergrund, Germany) 48 h prior to PA incubation for optimal LC-MS/MS measurements. […] Samples were taken after 2 h, 4 h, 8 h and 24 h.
Briefly, chromatographic separation of PA/PANO analytes was achieved on a 50 × 2.1 mm Kinetex ™ 2.6 μm CoreShell EVO C18 100 Å column protected by a SecurityGuard ™ ULTRA EVO C 18 2.1 mm guard column (both Phenomenex, Aschaffenburg, Germany) at a flow rate of 0.4 mL/min on a Shimadzu high performance liquid chromatography (HPLC) apparatus (LC-20AB, SIL-20AC HT, CTO-20AC, CBM-20A, Duisburg, Germany) coupled to an API4000 triple quadrupole MS (Sciex, Darmstadt, Germany). The following MS parameters were used for measurements in positive electrospray ionisation (ESI+) mode: ionisation voltage 2500 V, nebuliser gas 50 psi, heating gas 50 psi, curtain gas 30 psi, temperature 600 °C, collision gas level 7. The substance specific parameters are summarized in Kaltner et al. 2019 [79].

Data set [2] deals with HepaRG cells. Briefly: Cell viability (MTT assay) of HepaRG cells with and without transporter inhibitors. The class given is cell-based, human. The note with it: HepaRG. The procedure: as §1
To analyze the cytotoxic effects of PAs on HepaRG cells with non-inhibited and inhibited hepatic transporters, the cells were seeded at a density of 9000 cells per well in the inner 60 wells of a 96-well plate and cultivated as described in Section 4.2. After four weeks of cultivation, FBS concentration in the cell culture medium was reduced to 2% for 48 h prior incubation. Thereby, inhibitory effects of peptide growth factors from the FBS on xenobiotic-metabolizing enzymes were minimized. […] The cells were pre-incubated with pharmacological inhibitors as described in Section 4.3. […] Cell viability was analyzed via the MTT test. 10 µl MTT reagent (5 mg/mL MTT dissolved in phosphate-buffered saline, PBS) was added per well and incubated for 1 h at 37 °C. The supernatant was discarded, and the violet formazan crystals dissolved in 130 µL desorption solution (0.7% sodium dodecyl sulfate in propan-2-ol). After shaking for 20 min (under protection from light), absorbance was measured on a TecanM200Pro spectrometer (Tecan Group Ltd., Männedorf, Switzerland) at a wavelength of 570 nm, along with a reference wavelength of 630 nm.

Here are results for one compound from PMC8067754, “Active Transport of Hepatotoxic Pyrrolizidine Alkaloids in HepaRG Cells” (International Journal of Molecular Sciences, 2021).

Turning to `COc1ccc2c3c([nH]c2c1)[C@H](CC(C)C)N1C(=O)[C@H](CCC(=O)OC(C)(C)C)NC(=O)[C@@H]1C3` [Ko143, reference compound], the “effect of inhibitor on retrorsine and senecionine uptake and PANO formation” value in the data set with HepaRG cells [1] was “did not alter retrorsine and senecionine uptake and PANO formation”. Moreover, the “effect of inhibitor on PA-mediated cytotoxicity” value in the data set with HepaRG cells [2] (250 µM retrorsine or senecionine, MTT, 24 h, versus 250 µM PA only) is “did not alter the cytotoxic effects of retrorsine and senecionine”. Moreover, in the data set with HepaRG cells [2] (no PA, inhibitor alone 24 h: CsA 10 µM, Ko143 5 µM, MK571 50 µM, Qu 100 µM, TEA 3 mM), the “Cell viability (MTT), percent of solvent control, Mean [%]” value came to 98.3595%.
